How the values were obtained:
[1] = Test for water solubility; assay type: physicochemical; conditions: water
Excerpt: 3. Test for water solubility
A standard plot of UV absorbance(220 nm) vs. concentration was made; and employed to determine water-solubility.
The mixture was then passed through a 0.45 micron disposable membrane filter before dilution and UV measurement.

[2] = test system: murine leukemia L1210 cells; test: Growth inhibition test on cultured murine leukemia L1210 cells; assay type: cell-based; conditions: 48 hours, 37° C., Trypan blue viability
Procedure, shortened: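 Read-out is Trypan blue (0.17%) viability versus compound-free controls. Cells, 1×10^5, were cultured 48 h at 37° C under 5% CO2 in RPMI 1640/10% FCS containing various compound concentrations.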

[3] = test system: murine leukemia L1210; test: Antitumor activity test on murine leukemia L1210 in vivo; design: species or system male BDF1 mice; conditions: days 1, 5, 9
Procedure, shortened: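 Male BDF1 mice (6 weeks, 21±3 g; n=7) received 1×10^6 leukemia cells into the peritoneum on day 0, then test compound suspended or dissolved in 0.5% CMC i.p. on days 1, 5, 9. Activity expressed as T/C %, mean survival treated versus 0.5% CMC-injected controls.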

[4] = test system: ICR mice; test: Acute toxicity test; assay type: in vivo; design: Lethality: unit not given here; conditions: for Lethality: 10080 min
Method: 7-week-old ICR mice(male: 34±2 g; female: 31±2 g) were fed with solid food and water under the condition of 23±1° C. temperature and 65±5% humidity before the test.
Each treatment group consisted of 6 mice. The test compounds were administered intraperitoneally.
For 7 days after the administration, the appearance and the fate of the tested animals were recorded. The dead animals were subjected to autopsy and their visible pathological changes were observed. Their viscerals were stored in 10% formalin solution.

For `CC1(C)O[C@H](CN)[C@@H](CN)O1.O=C1C[O][Pt][O]1` [Example 2, (glycolato-O,O')[(4R,5R)-4,5-bis(aminomethyl)-2,2-dimethyl-1,3-dioxolane]platinum(II)], the Solubility in water [1] was 17.5 mg/mL, the “IC50 (concentration required for 50% inhibition of growth)” value [2] was 0.15 µg/mL and the “T/C (%)” value ([3]; 3.1 mg/kg i.p.) was 112%. The “T/C (%)” value ([3]; 6.2 mg/kg i.p.) was 179%, the “T/C (%)” value ([3]; 12.5 mg/kg i.p.) was 201% and the “T/C (%)” value ([3]; 25 mg/kg i.p.) was “toxic”. The “T/C (%)” value ([3]; 50 mg/kg i.p.) was “toxic”, the “Number of dead mice for 7 days” value ([4]; female, 25.0 mg/kg i.p.) was 0/6 and the “Number of dead mice, 1st day” value ([4]; female, 25.0 mg/kg i.p.) was 0/6. For the same compound, the “Number of dead mice for 7 days” value ([4]; female, 32.5 mg/kg i.p.) was 3/6, the “Number of dead mice, 1st day” value ([4]; female, 32.5 mg/kg i.p.) was 0/6 and the “Number of dead mice, 3rd day” value ([4]; female, 32.5 mg/kg i.p.) was 2/6. The “Number of dead mice, 4th day” value ([4]; female, 32.5 mg/kg i.p.) was 1/4, the Lethality ([4]; female, 32.5 mg/kg i.p.) was 50.0 and the “Number of dead mice for 7 days” value ([4]; female, 42.3 mg/kg i.p.) was 4/6. For the same compound, the “Number of dead mice, 1st day” value ([4]; female, 42.3 mg/kg i.p.) was 0/6, the “Number of dead mice, 3rd day” value ([4]; female, 42.3 mg/kg i.p.) was 3/6 and the “Number of dead mice, 4th day” value ([4]; female, 42.3 mg/kg i.p.) was 1/3. For the same compound, the Lethality ([4]; female, 42.3 mg/kg i.p.) was 66.7, the “Number of dead mice for 7 days” value ([4]; female, 55.0 mg/kg i.p.) was 6/6 and the “Number of dead mice, 1st day” value ([4]; female, 55.0 mg/kg i.p.) was 0/6. For the same compound, the “Number of dead mice, 3rd day” value ([4]; female, 55.0 mg/kg i.p.) was 4/6, the “Number of dead mice, 4th day” value ([4]; female, 55.0 mg/kg i.p.) was 1/2 and the “Number of dead mice, 5th day” value ([4]; female, 55.0 mg/kg i.p.) was 1/1. For the same compound, the Lethality ([4]; female, 55.0 mg/kg i.p.) was 100.0, the “Number of dead mice for 7 days” value ([4]; female, 71.4 mg/kg i.p.) was 6/6 and the “Number of dead mice, 1st day” value ([4]; female, 71.4 mg/kg i.p.) was 0/6. The “Number of dead mice, 3rd day” value ([4]; female, 71.4 mg/kg i.p.) was 4/6, the “Number of dead mice, 4th day” value ([4]; female, 71.4 mg/kg i.p.) was 2/2 and the Lethality ([4]; female, 71.4 mg/kg i.p.) was 100.0. The “Number of dead mice for 7 days” value ([4]; male, 25.0 mg/kg i.p.) was 0/6, the “Number of dead mice, 1st day” value ([4]; male, 25.0 mg/kg i.p.) was 0/6 and the “Number of dead mice for 7 days” value ([4]; male, 32.5 mg/kg i.p.) was 3/6. For the same compound, the “Number of dead mice, 1st day” value ([4]; male, 32.5 mg/kg i.p.) was 0/6, the “Number of dead mice, 3rd day” value ([4]; male, 32.5 mg/kg i.p.) was 1/6 and the “Number of dead mice, 4th day” value ([4]; male, 32.5 mg/kg i.p.) was 1/5. For the same compound, the “Number of dead mice, 5th day” value ([4]; male, 32.5 mg/kg i.p.) was 1/4, the Lethality ([4]; male, 32.5 mg/kg i.p.) was 50.0 and the “Number of dead mice for 7 days” value ([4]; male, 42.3 mg/kg i.p.) was 5/6. For the same compound, the “Number of dead mice, 1st day” value ([4]; male, 42.3 mg/kg i.p.) was 0/6, the “Number of dead mice, 3rd day” value ([4]; male, 42.3 mg/kg i.p.) was 3/6 and the “Number of dead mice, 4th day” value ([4]; male, 42.3 mg/kg i.p.) was 2/3. The Lethality ([4]; male, 42.3 mg/kg i.p.) was 83.3, the “Number of dead mice for 7 days” value ([4]; male, 55.0 mg/kg i.p.) was 6/6 and the “Number of dead mice, 1st day” value ([4]; male, 55.0 mg/kg i.p.) was 0/6. The “Number of dead mice, 3rd day” value ([4]; male, 55.0 mg/kg i.p.) was 4/6, the “Number of dead mice, 4th day” value ([4]; male, 55.0 mg/kg i.p.) was 1/2 and the “Number of dead mice, 5th day” value ([4]; male, 55.0 mg/kg i.p.) was 1/1. For the same compound, the Lethality ([4]; male, 55.0 mg/kg i.p.) was 100.0, the “Number of dead mice for 7 days” value ([4]; male, 71.4 mg/kg i.p.) was 6/6 and the “Number of dead mice, 1st day” value ([4]; male, 71.4 mg/kg i.p.) was 0/6. For the same compound, the “Number of dead mice, 3rd day” value ([4]; male, 71.4 mg/kg i.p.) was 4/6, the “Number of dead mice, 4th day” value ([4]; male, 71.4 mg/kg i.p.) was 2/2 and the Lethality ([4]; male, 71.4 mg/kg i.p.) was 100.0.
